Entries after “also recorded” stand apart in the source; their conditions may differ. Like-named read-outs stand apart in the source and are kept apart here.
Key:
[1] = test system: LTB4; experiment: Study DG-031-204: ionomycin-stimulated LTB4 in whole blood; assay type: in vivo, human; conditions: for Stimulated LTB4 (% change from baseline, whole blood, WBC corrected, 15 minute): after 4 weeks
Method: Briefly, the cell pellets from the Ficoll gradient were harvested and the red blood cells were subsequently lysed in 0.165 M NH4CL for 10 minutes on ice. After washing with PBS, neutrophils were counted and plated at 2×10^6 cells/ml in 4 ml cultures of 15% Fetal calf serum (FCS) (GIBCO BRL) in RPMI-1640 (GIBCO BRL). The cells were then stimulated with maximum effective concentration of ionomycin (1 μM). At 0, 15, 30, 60 minutes post ionomycin addition 600 μl of culture medium was aspirated and stored at −80° C. for the measurement of LTB4 release as described below. The cells were maintained at 37° C. in a humidified atmosphere of 5% CO2/95% air. All samples were treated with indomethasine (1 μM) to block the cyclooxygenase enzyme. The experimental conditions are described above.
LTB4 Immunoassay Assay Design was used to quantitate LTB4 concentration in supernatant from cultured ionomycin stimulated neutrophils. The assay used is based on the competitive binding technique in which LTB4 present in the testing samples (200 μl) competes with a fixed amount of alkaline phosphatase-labelled LTB4 for sites on a rabbit polyclonal antibody. During the incubation, the polyclonal Ab becomes bound to a goat anti-rabbit Ab coated onto the microplates. Following a wash to remove excess conjugate and unbound sample, a substrate solution is added to the wells to determine the bound enzyme activity. The color development is stopped and the absorbance is read at 405 nm. The intensity of the color is inversely proportional to the concentration of LTB4 in the sample. Each LTB4 measurement using the LTB4 Immunoassay, was done in duplicate. […]
The biomarkers were analyzed as described in Example 1. […]
Serum was collected weekly for determination of LTB4 concentration in response to the treatment with DG-031. […] Stimulated LTB4 effects measured in study DG-031-204, as shown in the raw data set out in Table 12, appear consistent with projections from the exposure-response analysis based on data from studies DG-031-201 and DG-031-203. […]

[2] = test system: MPO; experiment: Study DG-031-204: MPO in ionomycin-stimulated whole blood; assay type: in vivo, human; conditions: for Stimulated MPO from whole blood (% change from baseline, whole blood, WBC corrected, 60 minute), mean response: after 4 weeks of DG-031 administration
Method: (§1) An additional single site, open label study was carried out to obtain biomarker and safety data on additional DG-031 doses (i.e., 1000 mg and 1500 mg). This study examined the safety, tolerability and dose-related effects of DG-031 on inflammatory biomarkers including: LTB4, hsCRP, and MPO. A total of 119 patients with a prior history of CAD and MI were randomized to receive either 1000 mg DG-031 (500 mg BID) or 1500 mg DG-031 (500 mg TID) daily for 4-6 weeks. Treatment with DG-031 in addition to the subject's standard care, medication, and treatment, was prescribed by the patient's cardiologist. A majority of the subjects received statin therapy before, during and after the study. Follow-up assessments were performed 2 weeks after the end of study drug administration.
The biomarkers were analyzed as described in Example 1. Statistical analysis of the data was carried out using a one-sample t-test on change from baseline with a two-sided nominal significance level of 0.050. Biomarker concentrations were log-transformed and a simple last observation carried forward (LOCF) scheme was used to impute missing observations.
Plasma MPO concentration was measured weekly. MPO measurements in ionomycin-stimulated whole blood were also measured in a subset of patients at 4 weeks.

[3] = Study DG-031-204: adverse events; assay type: in vivo; conditions: for SAE Description: single patients
Method: as §1
A total of 5 patients reported 8 serious adverse events (SAE). One death was reported during the trial. All SAE's were consistent with underlying CAD disorders (see Table 16). A total of 88 of 119 patients reported 203 adverse events. The most commonly reported adverse events (and number of cases reported) included: cold (27), headache (13), constipation/diarrhea (6/8), and vertigo (5).

[4] = Clinical studies in CAD patients: safety and tolerability; assay type: in vivo, human
Method: Previous clinical studies administered the dosages of DG-031 either in a single dose (QD) or twice a day (BID)
A total daily dose of 750 mg, dosed at 250 mg TID, provides a preferable PK/PD relationship (inhibition of LTB4) and efficacy in terms of lowering other biomarkers of MI risk (i.e. MPO and CRP). In addition, a total daily dose of 1000 mg, dosed at 500 mg BID, also provides a preferable PK and PD time course (inhibition of LTB4) and efficacy in terms of lowering other biomarkers of MI risk (i.e. MPO). Patient compliance is an important consideration when designing a dosing schedule and patients are more likely to comply with a twice a day dosing (BID) than three times a day doing (TID).

[5] = healthy volunteers, total daily dose 100-1000 mg, less than 14 days; cited from earlier work
[6] = 119 patients, 500 mg BID or TID, 4-6 weeks

## O=C(O)[C@@H](c1ccc(OCc2ccc3ccccc3n2)cc1)C1CCCC1 [DG-031, (R)-(+)-alpha-cyclopentyl-4-(2-quinolinylmethoxy)-Benzeneacetic acid]
[1]; 500 mg BID
  Reduction of LTB4 levels, ionophore-stimulation assay: 35%
[1]; 1000 mg (500 mg BID)
  Stimulated LTB4 (% change from baseline, whole blood, WBC corrected, 15 minute): −44%
[1]; 1500 mg (500 mg TID)
  Stimulated LTB4 (% change from baseline, whole blood, WBC corrected, 15 minute): −28%
[2]; 500 mg BID or TID, 4 weeks
  Stimulated whole blood MPO concentrations: decreased
[2]; 1000 mg (500 mg BID)
  Stimulated MPO from whole blood (% change from baseline, whole blood, WBC corrected, 60 minute), mean response: −19%
[2]; 1500 mg (500 mg TID)
  Stimulated MPO from whole blood (% change from baseline, whole blood, WBC corrected, 60 minute), mean response: −29%
[3]; 1000 mg treatment
  SAE Description: Cardiac arrest,; also recorded: Subarachnoid hemorrhage; also recorded: Angiography,; also recorded: Repair of Carotid artery; also recorded: Myocardial infarction; also recorded: Unstable angina; also recorded: Myocardial infarction,
[3]; 1500 mg treatment
  SAE Description: Congestive heart failure
[3]; 119 patients
  Adverse events reported: 203
  Cases of cold: 27
  Cases of constipation: 6
  Cases of diarrhea: 8
  Cases of headache: 13
  Cases of vertigo: 5
[3]; 119 patients, 500 mg BID or TID
  Deaths reported during the trial: One
[3]; [6]
  Patients reporting serious adverse events: 5
  Serious adverse events (SAE) reported: 8
[3]; of 119 patients
  Patients reporting adverse events: 88
[4]; 250 mg QD, 375 mg QD, 250 mg BID, 375 mg BID, 250 mg TID
  Safety and tolerability: safe and well tolerated
[4]; total daily doses 250, 500, 750 mg, 128 days
  Safety and tolerability: safe and well tolerated
[5]
  Safety and tolerability: safe and well tolerated

Source: US20090030037A1, “Sustained Release Formulation and Dosing Schedules of Leukotriene Synthesis Inhibitor for Human Therapy” (deCODE Genetics ehf., priority 2005, published 2009)
